Measured values reported in patent US12642806B2, “Cannabidiol compositions for use in treating heart conditions” (CARDIOL THERAPEUTICS INC., priority 2019, dated 2026).

Tests used:
[1] = tested on: human monocytes; assay: CD69 expression by ionomycin/PMA-activated human monocytes (flow cytometry); assay type: cell-based; details: CBD 5 μg/mL or greater, added 15 minutes before 4 hours stimulation with ionomycin 1 μg/ml and PMA 50 ng/ml
Method: (§1) A further study was performed to determine the effect of CBD on the expression of CD69 (a marker of leukocyte activation) by human lymphocytes and monocytes that had been activated by ionomycin (1 μg/mL) and phorbol myristate acetate (PMA, 50 ng/mL) in vitro.
(§2) Mononuclear cells from a healthy human donor were isolated using a gradient method with Ficoll-Pacque™ Healthcare. Cells were washed with RPMI media with 10% FCS and 1% Penn/Strept and then placed in 12 well trays at 1×10^6 cells/mL and stimulated for 4 hours with Ionomycin 1 μg/ml and 50 ng/ml PMA. CBD was added 15 minutes before using DMSO as a vehicle. After the stimulation, cells were washed again and resuspended in 150 μL staining buffer (PBS+1% BSA). An optimized protocol for surface marker staining was used. CD69 was added to the cells, which were then incubated for 15 minutes in the dark at room temperature. After this, cells were washed twice with PBS+1% BSA and resuspended in 150 μL buffer. Cells were kept at 4 degrees prior to being analyzed in a FACSCanto™ II cytometer. Cell populations were determined by FSC/SSC. The number of events were at least 2000 events per gate. […] The data was analyzed with FlowJo X. Doublets were discriminated with an exclusion gate of FSC-A/FSC-W. Gating for lymphocytes and monocytes was determined by FSC-A/SSC-A. The frequency and expression of CD69-FITC was analyzed in its FITC channel.

[2] = tested on: H9c2 cells; assay: Repeated H9c2 hypertrophy study: BNP and collagen mRNA, mitochondrial ROS (MitoSOX); assay type: cell-based
Method: The study was repeated using H9c2 cells grown in a culture medium divided into seven groups. To one group nothing was added (“CTRL”). To the second, fourth, fifth, sixth, and seventh groups, Angiotensin II was added to the culture medium (“ANG”) to give a final concentration of 1.0 μM. The Angiotensin II was added to induce hypertrophy. To the third group, CBD was added to give a concentration of 0.1 μM (“CBD 0.1 μM”) as an additional control group. CBD was also added to (a) the fourth group to give a concentration of 0.001 μM (“ANG+CBD 0.001 μM”), (b) the fifth group to give a concentration of 0.01 μM (“ANG+CBD 0.01 μM”), (c) the sixth group to give a concentration of 0.1 μM (“ANG+CBD 0.1 μM”), and, finally, (d) the seventh group to give a concentration of 1 μM (“ANG+CBD 1 μM”).

[3] = tested on: mouse model of non-ischemic heart failure (HF); assay: Mouse model of non-ischemic heart failure (L-NAME/NaCl + Angiotensin II); assay type: in vivo, C57BL/6 laboratory mice; details: for cardiac fibrosis (Masson's Trichrome) / myocyte area (hypertrophy): 4 weeks, vs Angiotensin group; for mRNA expression of BNP in heart tissue (qPCR): compared with ANG group
Method: Tests were done to evaluate the potential for CBD in treating or preventing heart failure in a mouse model of non-ischemic heart failure (HF) illustrated in FIG. 5.
Three to four week old male C57BL/6 laboratory mice were used in the experiments. The mice were divided into four groups. A first group (the Control) received nothing. The second group of mice (Angiotensin) was provided with water containing 0.1 mg/ml of N(gamma)-nitro-L-arginine methyl ester (L-NAME) and 1% sodium chloride (NaCl) ad libitum for one week. Following this, 0.7 mg/kg/week of Angiotensin II was administered subcutaneously for 4 weeks using osmotic pumps. The third group and fourth group were subjected to the same protocol as the second group, however, the third group (ANG+CBD 1 mg/kg) and fourth group (ANG+CBD 10 mg/kg) also received synthetic CBD subcutaneously in an amount of 1 mg/kg and 10 mg/kg, respectively, once every 3 days during the same four week period. The CBD compositions used in this experiment consisted of CBD dissolved in PEG400.
After four weeks of treatment, cardiac tissue was evaluated for fibrosis and myocyte hypertrophy and changes in remodeling and inflammation biomarkers.

[4] = tested on: H9c2 cells; assay: Angiotensin II-mediated cardiomyocyte hypertrophy in H9c2 cells, cell surface area (calcein, confocal microscopy); assay type: cell-based; details: compared with Ang group
Method: A study was conducted to determine the effect of CBD in a model of cardiomyocyte hypertrophy, using H9c2 cells, a cardiomyocyte cell line, in vitro. In this study, H9c2 cells grown in a culture medium were divided into four groups. To one group nothing was added (“Control”). To the second, third and fourth groups, Angiotensin II was added to the culture medium (“Ang”) to give a final concentration of 1.0 μM. The Angiotensin II was added to induce hypertrophy. To the third group, CBD was also added to give a concentration of 0.1 μM (“Ang+CBD 0.1 μM”). Finally, to the fourth group, CBD was also added to give a concentration of 1 μM (“Ang+CBD 1 μM”).
FIG. 1 contains representative confocal microscopy images of the H9c2 cells in each group. The images were obtained using a model with the same parameters and cell staining, to determine the surface area per cell, was achieved using calcein fluorescent dye. […] The results are summarized in FIG. 2, wherein each group comprises at least 3 independent replicates per group.

[5] = taken orally; background statement; cited from earlier work
[6] = tested on: human lymphocytes; assay: CD69 expression by ionomycin/PMA-activated human lymphocytes (flow cytometry); assay type: cell-based; details: CBD 5 μg/mL or greater, added 15 minutes before 4 hours stimulation with ionomycin 1 μg/ml and PMA 50 ng/ml
Method: as §1, §2

[7] = molecular target: T1, CB2 receptor (Homo sapiens, UniProt P34972); details: literature (Proc Natl Acad Sci USA 2008); cited from earlier work
T1 sequence (P34972 whole entry): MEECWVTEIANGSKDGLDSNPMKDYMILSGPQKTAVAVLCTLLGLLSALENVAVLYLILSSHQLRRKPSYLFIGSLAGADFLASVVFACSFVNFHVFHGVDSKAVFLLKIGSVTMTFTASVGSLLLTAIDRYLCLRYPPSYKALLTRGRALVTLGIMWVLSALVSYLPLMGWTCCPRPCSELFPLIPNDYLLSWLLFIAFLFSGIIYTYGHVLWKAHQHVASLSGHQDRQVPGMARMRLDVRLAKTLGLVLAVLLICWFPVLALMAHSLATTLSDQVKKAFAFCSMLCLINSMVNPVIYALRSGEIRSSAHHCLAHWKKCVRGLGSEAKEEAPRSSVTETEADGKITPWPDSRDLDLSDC

[8] = molecular target: T1, CB2 receptor; details: literature (Proc Natl Acad Sci USA 2008); cited from earlier work; remark: listed apart in the source
[9] = ANG+CBD 1 μM compared to ANG group
[10] = Angiotensin II 1.0 μM + CBD 0.001, 0.01, 0.1, 1 μM
[11] = CBD 1 mg/kg body weight subcutaneously
[12] = CBD 1 mg/kg subcutaneously once every 3 days
[13] = CBD 10 mg/kg subcutaneously once every 3 days

For `C=C(C)[C@@H]1CCC(C)=C[C@H]1c1c(O)cc(CCCCC)cc1O` [CBD, cannabidiol], the “level of expression of CD69 by monocytes” value [1] was “reduced the level of expression of CD69”, the “mRNA level of expression of collagen” value ([2]; ANG+CBD 0.1 μM compared to ANG group) was “significantly reduced” and the “mRNA level of expression of BNP” value [2, 9] was “significantly reduced”. For the same molecule, the “mRNA level of expression of collagen” value [2, 9] was “significantly reduced”, the “mRNA level of expression of BNP” value [2, 10] was “dose-dependent reduction” and the “mRNA level of expression of collagen” value [2, 10] was “dose-dependent reduction”. For the same molecule, the “Mitochondrial reactive oxygen species (ROS, MitoSOX)” value ([2]; Angiotensin II 1.0 μM + CBD at different doses) was “reduced down to control levels”, the “mRNA expression of IL10” value [3, 11] was “significantly increased” and the “mRNA expression of pro-inflammatory cytokine IL6” value [3, 11] was “significantly decreased”. For the same molecule, the “cardiac fibrosis (Masson's Trichrome)” value [3, 12] was “effective to reduce”, the “myocyte area (hypertrophy)” value [3, 12] was “effective to reduce” and the “mRNA expression of BNP in heart tissue (qPCR)” value ([3]; CBD 1 mg/kg subcutaneously) was “significant reduction”. The “mRNA expression of pro-inflammatory cytokine IL6” value ([3]; CBD 10 mg/kg body weight subcutaneously) was “significantly decreased”, the “cardiac fibrosis (Masson's Trichrome)” value [3, 13] was “effective to reduce” and the “myocyte area (hypertrophy)” value [3, 13] was “effective to reduce”. The “mRNA expression of BNP in heart tissue (qPCR)” value ([3]; CBD 10 mg/kg subcutaneously) was “significant reduction”, the “mRNA expression of pro-inflammatory cytokine IL1β” value ([3]; CBD subcutaneously, dose not given) was “trend to be reduced to control levels” and the “cell surface area of H9c2 cells” value ([4]; Angiotensin II 1.0 μM + CBD 0.1 μM) was “significantly smaller”. For the same molecule, the “cell surface area of H9c2 cells” value ([4]; Angiotensin II 1.0 μM + CBD 1 μM) was “significantly smaller”, the overall bioavailability [5] was “less than 10%” and the “level of expression of CD69 by lymphocytes” value [6] was “reduced the level of expression of CD69”.

In the case of `C=C1CC/C=C(\C)CC[C@@H]2[C@@H]1CC2(C)C` [β-caryophyllene, trans-(1R,9S)-8-Methylene-4,11,11-trimethylbicyclo[7.2.0]undec-4-ene], the “functional activity at CB2” value [7] is given as “functional CB2 agonist” and the “binding to the CB2 receptor” value [8] is given as “selectively binds to the CB2 receptor”.
